Measured values reported in PMC6050274, “Buparlisib is a brain penetrable pan-PI3K inhibitor” (Scientific Reports, 2018).

Biological target: T1, human BCRP (ABCG2) (Homo sapiens, UniProt Q9UNQ0)
T1 construct: expressed in transfected cells; host or cells: MDCK (MDCK-BCRP)
T1 sequence (Q9UNQ0 1-655): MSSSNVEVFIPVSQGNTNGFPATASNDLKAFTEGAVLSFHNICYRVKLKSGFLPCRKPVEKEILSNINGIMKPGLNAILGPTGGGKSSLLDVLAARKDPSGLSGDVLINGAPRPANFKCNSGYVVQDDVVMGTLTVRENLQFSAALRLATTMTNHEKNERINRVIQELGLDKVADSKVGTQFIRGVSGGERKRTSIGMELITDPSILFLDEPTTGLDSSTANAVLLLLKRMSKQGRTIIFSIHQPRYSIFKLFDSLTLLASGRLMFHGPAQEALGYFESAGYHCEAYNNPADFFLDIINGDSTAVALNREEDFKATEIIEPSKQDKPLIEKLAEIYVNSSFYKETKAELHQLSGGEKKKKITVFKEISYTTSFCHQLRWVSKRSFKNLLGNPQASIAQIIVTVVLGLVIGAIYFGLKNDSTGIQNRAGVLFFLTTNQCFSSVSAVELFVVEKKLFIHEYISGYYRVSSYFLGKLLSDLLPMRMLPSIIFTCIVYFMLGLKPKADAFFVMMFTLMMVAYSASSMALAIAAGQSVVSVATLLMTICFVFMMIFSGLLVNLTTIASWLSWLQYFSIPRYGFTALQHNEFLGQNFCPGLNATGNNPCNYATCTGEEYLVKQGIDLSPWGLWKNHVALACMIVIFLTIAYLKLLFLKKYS
Assay: Concentration equilibrium transport assay (CETA), MDCK-BCRP
Format: in vitro ADME
Details: 100 nM
Source text: Figure 1 Analysis of buparlisib substrate affinity for ABC transporters using in vitro transport assays. (A) The chemical structure of buparlisib. (B) A conventional transport assay (CTA) using LLC-PK1 cells in presence of zosuquidar to block endogenous (porcine) P-gp activity. […] (C) Concentration equilibrium transport assays (CETAs) using MDCK or LLC cells that overexpress murine BCRP, (Bcrp1), human BCRP, murine P-gp (Mdr1a) or human P-gp (MDR1). […] The P-gp inhibitor zosuquidar was used in all MDCK cell lines to inhibit endogenous P-gp activity and in LLC cell lines to validate possible P-gp-mediated translocations. […]
Conventional bidirectional transport assays (CTAs) and concentration equilibrium transport assays (CETAs) were performed as described previously. […] Transwell leakiness was determined as Carboxyl-[^14C]-inulin translocation exceeding 1.5% per hour and these wells were excluded from the analysis. […]
As described in detail before, CETA results were analysed with the General linear model repeated measures procedure of SPSS (v22; SPSS Inc, Chicago, IL)[25]. […] The standard error of the oral bioavailability was calculated using the formula below: SEF=F(SEAUCp.o./AUCp.o.)^2+(SEAUCi.v./AUCi.v.)^2 Buparlisib concentrations in WT and transporter knockout mice in vivo were compared using one-way analysis of variance followed by post hoc Bonferroni tests. […]

Nc1cc(C(F)(F)F)c(-c2cc(N3CCOCC3)nc(N3CCOCC3)n2)cn1 [buparlisib]
substrate of human BCRP: not a substrate
